Test results from patent EP0209274A2, “Furanone derivatives” (ELI LILLY AND COMPANY, priority 1985, dated 1987).

Assays:
[1] = biological target: Pancreatic phospholipase A2 (Homo sapiens, UniProt P04054); assay: Phospholipase A2 (PLA2) Assay; assay type: biochemical; conditions: 30 µg/ml test compound; inhibition of 14C-free fatty acid formation
Description: The assay buffer contained 10 mM Tris-HCl buffer, pH 8.0, 100 mM NaCl, 1 mM CaCl2 and 1 mg/ml of bovine serum albumin. A toluene-ethanol (1:1 v/v) solution of phosphatidiylcholine, L-a-dipalmitoyl-(2-palmitoyl-1-^14C) obtained from New England Nuclear was evaporated to dryness in a flask under nitrogen and the assay buffer was added to give a substrate concentration of 9.0 x 10^-5M (specific activity = 27.7 mCi/mmol). The mixture was sonicated for 5 minutes in a Bransonic 220 Sonication Bath. Pancreatic phospholipase A2 (specific activity = 600 units/mg) was diluted with the assay buffer to give an enzyme concentration of 0.1 mg/ml. […] To initiate the enzyme reaction, 0.1 ml of the mixture containing the substrate was added to the enzyme solution and the reaction mixture was further incubated for 30 minutes at 37°C. The reaction was then terminated by the addition of 20 µl of 1M citric acid.
Fifty µl of the mixture was added to 10 ml of scintillation fluid [5.88 g of 2,5-diphenyl-oxazole and 118 mg of 1,4-bis(5-phenyloxazol-2-yl)benzene] dissolved in 650 ml of toluene and 350 ml of Triton X-100) and the radioactivity was determined in an Isocap/300 liquid scintillation counter (Searle Analytic Inc., Southfield, Michigan). Another 50 µl of the mixture was applied directly onto the spotting area of a silica gel plate (LK6D, Whatman, Clifton, N.J.) and subjected to thin layer chromatography in a solvent system of ethyl acetate:acetic acid:2,2,4-trimethylpentane:H20 (90:20:50:100, v/v/v). The silica gel on the plate was scraped in 1 cm sections, suspended in 5 ml of the Triton X-100 based scintillation fluid and the radioactivity was determined. Phosphatidylcholine remained at the origin while fatty acids migrated to a few centimeters (2-3 cm) below the solvent front. The percent of ^14C-free fatty acid formed with the test compound added was calculated as compared to the amount formed in control experiments where no test compound was added. […]

[2] = biological target: T1, fatty acid cyclooxygenase (Homo sapiens, UniProt P23219); assay: Fatty Acid Cyclooxygenase (FCO) Assay; assay type: biochemical; conditions: 30 µg/ml test compound; inhibition of formation of PGE2; enzyme from human platelets
T1 construct: Microsomes were prepared from 185 bags of human platelets; from tissue; host or cells: human platelets (solubilized microsomes, then electrofocusing and Sephadex G-200)
Description: Microsomes were prepared from 185 bags of human platelets (each bag containing the platelets from one pint of blood prepared using differential centrifugation procedures). The platelets from approximately 60 bags were prepared at one time. Platelet-rich plasma (500 g) was centrifuged at 10,000 x g for 20 minutes, and the platelet pellet was suspended in 100 ml of 0.1M. potassium phosphate buffer, pH 8.0, with a Teflon glass homogenizer and sonicated for 5.0 minutes with a Bronson Sonifier (Model 350) in a rosette flask cooled in ice water. Disrupted platelets were centrifuged 15 minutes at 10,000 x g. The supernatant was centrifuged at 100,000 x g for 90 minutes and the microsomal pellets were homogenized in 25 ml of 20% sucrose containing 1.0% Triton X-100 detergent. After 30 minutes at 4°C, the solubilized microsomes were centrifuged at 100,000 x g for 60 minutes. The yellow supernatant was removed and stored at -70°C.
The solubilized fatty acid cyclooxygenase was applied to a 440 ml electrofocusing column (LKB-8012) containing 1% phisolytes (Brinkman Instruments, Westburgh, NY), pH 2-11, with the cathode at the top of the column. The enzyme was layered onto the column at the appropriate time so that its sucrose concentration was equal to that of the column gradient. This was accomplished by checking the gradient concentration periodically with a sucrose hand refractometer. Electrofocusing was carried out for 16 hours with an initial voltage of 400 V and a final voltage of 900-1,000 volts. Fractions were collected (20 ml) and assayed for PGE2 formation. Active peak fractions were pooled and concentrated by ultrafiltration (XM 100A) to a volume of 3-5 ml.
Active fractions from electrofocusing were applied to a G-200 Sephadex column (2 cm x 46 cm) and eluted with 10 mM potassium phosphate buffer, pH 7.0, in 5 ml fractions. After assay, active fractions were pooled and concentrated to 1.0 ml by ultrafiltration (XM 100A), and kept frozen at -70°C.
Enzyme activity was determined by assaying for PGE2 formation by preincubating the enzyme with 10 mmol/l imidazole phosphate buffer, pH 8.0, 2 mmol/l epinephrine, 2 mmol/1 methemoglobin, and the test compound (30 pg/ml) in a total volume of 0.2 ml for one minute at 37°C. After preincubation, 5 mmol/1 ^14C-arachidonic acid were added and the mixture was incubated an additional 0.5 minutes at 37°C. The enzyme reaction was stopped by the addition of 20 µl of indomethacin (2 mg/ml) in alcohol.
The reaction mixture was spotted (50 pl) on a silica gel (LQ6D) plate and subjected to TLC. The solvent system consisted of chloroform-methanol-glacial acetic acid (90:5:5, v/v/v) and the relative mobilities were PGF2a = 0.235, and PGE2 = 0.47. The silica gel on the plate was scraped in 1 cm sections, suspended in 5 ml of the scintillation fluid [5.88 g of 2,5-diphenyl-oxazole and 118 mg of 1,4-bis(5-phenyloxazol-2-yl)benzene] dissolved in 650 ml of toluene and 350 ml of Triton X-100) and the radioactivity was determined in an Isocap/300 liquid scintillation counter (Searle Analytic, Inc., Southfield, MI). Another 50 µl of the mixture was added to 10 ml of the Triton X-100 based scintillation fluid, and the radioactivity was determined so that the amount of radioactivity recovery from the TLC plate could be ascertained. PGE2 formation for each test compound was determined as a percent of control experiments wherein no test compound was added. Data is expressed in Table I as the percent inhibition of formation of PGE2 at a test compound concentration of 30 pg/ml.

[3] = biological target: T2, 5-Lipoxygenase (Cavia porcellus, UniProt A0A286X958); assay: 5-Lipoxygenase (5-LPO) Assay; assay type: biochemical, guinea pigs; conditions: inhibition of 5-HETE formation; supernatant of guinea pig PMNL sonicate; read-out: 5-LPO IC50 (µg/ml) (converted)
T2 construct: The PMNL suspension was disrupted by five ½-second pulse sonication; from tissue; host or cells: guinea pig peritoneal polymorphonuclear leukocytes (30,000 x g supernatant of the sonicate)
T2 sequence (A0A286X958 1-674): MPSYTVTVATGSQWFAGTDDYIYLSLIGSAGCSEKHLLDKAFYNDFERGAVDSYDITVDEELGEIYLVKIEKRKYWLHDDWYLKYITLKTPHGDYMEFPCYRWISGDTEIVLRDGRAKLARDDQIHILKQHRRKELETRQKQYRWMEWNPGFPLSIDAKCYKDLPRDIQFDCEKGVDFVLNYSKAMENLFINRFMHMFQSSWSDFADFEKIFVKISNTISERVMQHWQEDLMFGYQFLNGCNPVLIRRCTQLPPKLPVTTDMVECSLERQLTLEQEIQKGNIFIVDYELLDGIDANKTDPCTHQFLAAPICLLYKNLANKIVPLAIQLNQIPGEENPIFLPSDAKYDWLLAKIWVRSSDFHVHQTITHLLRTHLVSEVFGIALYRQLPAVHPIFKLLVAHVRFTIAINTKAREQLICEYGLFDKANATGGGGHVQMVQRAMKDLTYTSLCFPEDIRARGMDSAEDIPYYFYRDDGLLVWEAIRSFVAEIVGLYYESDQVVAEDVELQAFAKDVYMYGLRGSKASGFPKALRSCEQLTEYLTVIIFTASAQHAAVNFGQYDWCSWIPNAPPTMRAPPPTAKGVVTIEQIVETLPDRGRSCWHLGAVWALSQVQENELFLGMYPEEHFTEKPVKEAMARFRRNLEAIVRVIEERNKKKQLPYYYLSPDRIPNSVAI
Description: Ten milliliters of a 2% casein solution were injected intraperitoneally to guinea pigs weighing 250-300 gm. After 16-18 hours, the guinea pigs were killed by suffocation in a carbon dioxide chamber. The peritoneal cavity was infused with 70 ml of saline and 40-50 ml of the fluid were recovered from the cavity. After centrifugation, cell pellets were washed twice in Hank's balanced salt solution (HBSS) without calcium ion.
The cells were then suspended in 5 ml of sodium phosphate buffer, pH 7.1 containing 1 mM EDTA, and 0.1% gelatin. About 20-30 x 10^7 cells were obtained from one guinea pig.
The PMNL suspension was disrupted by five ½-second pulse sonication at the setting of 3 in a Branson Sonifier, Model 350, equipped with a microtip. The sonicates were combined and centrifuged at 30,000 x g for 10 minutes. The supernatant was kept frozen at -70°C until use.
. Enzyme activity was determined by assaying for 5-HETE formatiun by first incubating 0.2 ml of the supernatant obtained from the PMNL sonicate with the test compound, 1 mM CaCl2, 2 mM ATP, and 1 mM GSH for 5 minutes at 37°C. The mixture is treated with 5 pM ^14C-arachidonic acid and incubated at 37°C an additional 10 minutes. The enzyme reaction was then stopped by the addition of 10 µl of 1M citric acid and 10 µl of an alcohol solution containing 20 mg/ml each of indomethacin and butylated hydroxyanisole (BHA). The reaction mixture was spotted (50 µl) on a silica gel plate (Baker TLC plate S1250-PA-19C) and subjected to TLC in a solvent system of ethyl acetate/2,2,4-tri- methylpentane/glacial acetic acid/H20 (90:50:20:100).
The radioactivity of the arachidonic acid and its metabolites (5-HETE and LTB4) was visualized from a developed x-ray film which had been exposed to the TLC plate 1-2 days. The amount of 5-HETE formed was quanti- tated by scraping the silica gel area corresponding to the spot on the x-ray film, and the radioactivity determined in a Isocap/300 liquid scintillation counter (Searle Analytic, Inc.).
The percent inhibition of the formation of 5-HETE was determined for each concentration of test compound tested as compared to a control experiment wherein no test compound was added. The concentration and percent inhibition values were plotted on semi log paper and the concentration in which formation of 5-HETE is inhibited by 50% (ICso) was determined by interpolation.

T1 sequence (P23219 24-599): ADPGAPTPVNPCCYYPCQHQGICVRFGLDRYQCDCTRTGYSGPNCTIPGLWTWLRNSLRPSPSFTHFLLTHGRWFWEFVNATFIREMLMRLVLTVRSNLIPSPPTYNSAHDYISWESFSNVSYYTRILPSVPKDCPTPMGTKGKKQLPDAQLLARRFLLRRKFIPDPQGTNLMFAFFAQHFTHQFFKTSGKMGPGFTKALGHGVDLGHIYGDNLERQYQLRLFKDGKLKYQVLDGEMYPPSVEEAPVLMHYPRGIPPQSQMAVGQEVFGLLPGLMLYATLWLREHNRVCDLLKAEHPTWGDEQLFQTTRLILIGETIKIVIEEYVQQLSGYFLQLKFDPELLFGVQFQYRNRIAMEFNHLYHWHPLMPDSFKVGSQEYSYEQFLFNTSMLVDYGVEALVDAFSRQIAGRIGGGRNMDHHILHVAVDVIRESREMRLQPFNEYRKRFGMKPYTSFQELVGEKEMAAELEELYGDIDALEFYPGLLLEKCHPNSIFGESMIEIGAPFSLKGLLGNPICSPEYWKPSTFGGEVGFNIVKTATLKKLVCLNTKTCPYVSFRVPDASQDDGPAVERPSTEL
Sequence of Pancreatic phospholipase A2 (P04054 23-148): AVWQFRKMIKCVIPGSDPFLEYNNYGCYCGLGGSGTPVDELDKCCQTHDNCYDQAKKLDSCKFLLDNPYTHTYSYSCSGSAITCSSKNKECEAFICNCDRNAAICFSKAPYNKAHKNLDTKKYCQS

Row | Structure (SMILES) | inhibition at 30 µg/mL [1] [%] | inhibition at 30 µg/mL [2] [%] | IC50 [3] [µM]
1 | C=CCCCCCCCC1=CC(=O)OC1O (stereo not drawn) [Example 7, 5-Hydroxy-4-(8-nonenyl)-2(5H)-furanone] | 0 | 23 | –
2 | CCCCCC/C=C\CCCCCCCCC1=CC(=O)OC1O (stereo not drawn) [Example 8, (Z)-4-(9-hexadecenyl)-5-hydroxy-2(5H)-furanone] | 36 | 21 | –
3 | CCCCCCCC/C=C\CCCCCCCCCCC1=CC(=O)OC1O (stereo not drawn) [Example 10, (Z)-4-(11-eicosenyl)-5-hydroxy-2(5H)-furanone] | 26 | 25 | –
4 | O=C1C=C(CCCCCOc2ccc3ccccc3c2)C(O)O1 (stereo not drawn) [Example 16, 5-Hydroxy-4-[5-(2-naphthalenyloxy)pentyl]-2(5H)-furanone] | – | 27 | 9.6
5 | O=C1C=C(CCCCOc2ccccc2Cc2ccccc2)C(O)O1 (stereo not drawn) [Example 17, 5-Hydroxy-4-[4-(2-benzylphenoxy)butyl]-2(5H)-furanone] | – | 12 | 8.87
6 | CCCC/C=C\CCCCCCCCCCC1=CC(=O)OC1O (stereo not drawn) [Example 21, (Z)-4-(11-hexadecenyl)-5-hydroxy-2(5H)-furanone] | 0 | – | 93
